From US20110039825A1, “LIGANDS OF ALPHA-ADRENOCEPTORS, DOPAMINE, HISTAMINE, IMIDAZOLINE AND SEROTONIN RECEPTORS AND THEIR USE” (Alla Chem, LLC, priority 2007, published 2011)

Legend:
adrenergic receptor α1B = biological target: T1, adrenergic receptor α1B (Rattus norvegicus, UniProt P15823); assay: radioligand binding to adrenergic receptor α1B ([3H] Prazosin); details: 10 μM ligand
T1 construct: membrane species from rat liver (rat of Wistar breed) are prepared; from tissue; host or cells: rat (Wistar) liver membranes
T1 sequence (P15823 1-515): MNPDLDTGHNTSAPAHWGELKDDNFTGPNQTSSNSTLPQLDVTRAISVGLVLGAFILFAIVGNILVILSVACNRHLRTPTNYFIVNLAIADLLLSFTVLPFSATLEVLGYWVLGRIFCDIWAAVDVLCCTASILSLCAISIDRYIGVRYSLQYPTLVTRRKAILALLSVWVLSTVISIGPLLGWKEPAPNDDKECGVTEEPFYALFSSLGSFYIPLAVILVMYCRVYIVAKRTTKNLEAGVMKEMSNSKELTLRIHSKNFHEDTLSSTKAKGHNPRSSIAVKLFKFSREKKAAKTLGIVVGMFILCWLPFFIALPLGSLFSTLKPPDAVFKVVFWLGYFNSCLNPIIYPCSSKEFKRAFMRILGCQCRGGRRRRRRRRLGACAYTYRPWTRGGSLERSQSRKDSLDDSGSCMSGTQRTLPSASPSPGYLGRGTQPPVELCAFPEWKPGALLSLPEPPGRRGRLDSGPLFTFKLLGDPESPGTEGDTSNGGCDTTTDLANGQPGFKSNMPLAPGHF
From the text: Species heterogeneity of hepatic α1A-, α1B-, and α1C-subtypes. Biochem Biophys Res Commun. 186:760-7676 1992]. […] Prazosin is used as positive control.

human α1D receptor = biological target: T2, human α1D receptor (Homo sapiens, UniProt P25100); assay: radioligand binding to adrenergic receptor α1D ([3H] Prazosin); details: 10 μM ligand
T2 construct: expressed in transfected cells; host or cells: HEK-293
T2 sequence (P25100 1-572): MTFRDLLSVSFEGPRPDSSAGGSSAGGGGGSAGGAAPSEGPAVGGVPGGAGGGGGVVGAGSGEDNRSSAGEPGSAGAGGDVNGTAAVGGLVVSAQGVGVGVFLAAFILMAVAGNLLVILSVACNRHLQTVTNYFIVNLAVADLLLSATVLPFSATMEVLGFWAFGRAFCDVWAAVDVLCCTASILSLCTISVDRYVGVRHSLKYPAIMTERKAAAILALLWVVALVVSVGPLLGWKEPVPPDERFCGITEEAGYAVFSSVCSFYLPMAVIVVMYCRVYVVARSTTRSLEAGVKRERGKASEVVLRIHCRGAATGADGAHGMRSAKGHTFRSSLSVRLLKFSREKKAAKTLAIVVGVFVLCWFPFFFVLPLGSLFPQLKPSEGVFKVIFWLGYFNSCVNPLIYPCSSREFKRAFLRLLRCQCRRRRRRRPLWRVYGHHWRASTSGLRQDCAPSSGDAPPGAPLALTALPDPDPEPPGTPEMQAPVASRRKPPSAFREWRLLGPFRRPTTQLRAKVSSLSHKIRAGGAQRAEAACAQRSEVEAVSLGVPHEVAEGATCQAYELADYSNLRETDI
From the text: 6-C. […] For this purpose sDNA of human α1D receptor is expressed in HEK-293 cells, as it was described in [T L Theroux, T A Esbenshade, R D Peavy and K P Minneman. Coupling efficiencies of human alpha 1-adrenergic receptor subtypes: titration of receptor density and responsiveness with inducible and repressible expression vectors. Mol. Pharmacol.; 50: 1376-1387, 1996]. […] Prazosin is used as positive control.

human D2S receptor = biological target: T3, human D2S receptor (Homo sapiens, UniProt P14416); assay: radioligand binding to dopamine receptor D2S ([3H] Spiperone); details: 10 μM ligand
T3 construct: expressed in transfected cells; host or cells: CHO
T3 sequence (P14416 1-414 isoform P14416-2): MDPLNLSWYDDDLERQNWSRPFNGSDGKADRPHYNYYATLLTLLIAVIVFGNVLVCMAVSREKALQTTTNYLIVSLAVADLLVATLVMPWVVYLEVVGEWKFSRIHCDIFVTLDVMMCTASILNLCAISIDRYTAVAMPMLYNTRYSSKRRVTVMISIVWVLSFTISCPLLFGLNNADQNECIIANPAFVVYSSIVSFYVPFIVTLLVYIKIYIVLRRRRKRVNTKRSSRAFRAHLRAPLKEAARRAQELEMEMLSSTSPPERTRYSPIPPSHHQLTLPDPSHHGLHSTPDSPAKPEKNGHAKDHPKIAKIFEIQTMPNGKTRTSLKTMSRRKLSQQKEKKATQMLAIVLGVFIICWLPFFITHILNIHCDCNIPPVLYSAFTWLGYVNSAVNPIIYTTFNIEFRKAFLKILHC
From the text: 7-C. […] For this purpose sDNA of human D2S receptor is expressed in CHO cells, as described in [Hayes G, Biden T J, Selbie L A and Shine J, Structural subtypes of the dopamine D2 receptor are functionally distinct. […] Mol. Endocrinol. […] Mol. Endocrinol. […] Spiperone is used as positive control.

human D3 receptor = biological target: T4, human D3 receptor (Homo sapiens, UniProt P35462); assay: radioligand binding to dopamine receptor D3 ([3H] Spiperone); details: 10 μM ligand
T4 construct: expressed in transfected cells; host or cells: CHO
T4 sequence (P35462 whole entry): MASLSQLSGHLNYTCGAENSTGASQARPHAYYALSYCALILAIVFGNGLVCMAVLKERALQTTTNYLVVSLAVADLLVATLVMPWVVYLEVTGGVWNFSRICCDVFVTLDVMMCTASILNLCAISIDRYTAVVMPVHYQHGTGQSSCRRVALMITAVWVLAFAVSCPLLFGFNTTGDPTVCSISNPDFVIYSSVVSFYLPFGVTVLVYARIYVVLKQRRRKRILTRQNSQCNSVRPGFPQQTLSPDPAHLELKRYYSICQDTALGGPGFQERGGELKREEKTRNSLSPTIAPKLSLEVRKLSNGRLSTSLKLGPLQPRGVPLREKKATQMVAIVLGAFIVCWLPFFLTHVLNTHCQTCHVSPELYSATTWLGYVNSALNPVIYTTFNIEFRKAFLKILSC
From the text: For this purpose sDNA of human D3 receptor is expressed in CHO cells, as it was described in [Sokoloff P, Giros B, Martres M-P, Bouthenet M-L and Schwartz J-C. Molecular cloning and characterization of novel dopamine receptor (D3) as target for neuroleptics. Nature. […] Molecular cloning and characterization of novel dopamine receptor (D3) as target for neuroleptics. Nature. […] Spiperone is used as positive control.

human H1 receptor = biological target: T5, human H1 receptor (Homo sapiens, UniProt P35367); assay: radioligand binding to histamine receptor H1 ([3H] Pyrilamine); details: 10 μM ligand
T5 construct: expressed in transfected cells; host or cells: CHO-K1
T5 sequence (P35367 whole entry): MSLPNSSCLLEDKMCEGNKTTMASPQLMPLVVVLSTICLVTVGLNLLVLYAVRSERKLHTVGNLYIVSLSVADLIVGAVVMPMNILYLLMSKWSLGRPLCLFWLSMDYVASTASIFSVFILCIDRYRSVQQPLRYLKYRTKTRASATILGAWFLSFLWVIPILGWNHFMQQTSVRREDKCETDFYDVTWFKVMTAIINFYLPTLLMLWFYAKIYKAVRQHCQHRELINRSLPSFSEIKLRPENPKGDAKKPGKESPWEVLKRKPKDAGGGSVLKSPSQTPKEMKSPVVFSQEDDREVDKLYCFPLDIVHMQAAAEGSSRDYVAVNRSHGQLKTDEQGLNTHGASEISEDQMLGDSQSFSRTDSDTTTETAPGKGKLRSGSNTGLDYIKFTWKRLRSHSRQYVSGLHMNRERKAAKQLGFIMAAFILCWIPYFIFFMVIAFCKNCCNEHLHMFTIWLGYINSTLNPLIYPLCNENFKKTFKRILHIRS
From the text: Biochem Biophys Res Comm. 197(3): 1601-1608, 1993]. […] Biochem Biophys Res Comm. 197(3): 1601-1608, 1993].
Pyrilamine is used as positive control.

human H2 receptor = biological target: T6, human H2 receptor (Homo sapiens, UniProt P25021); assay: radioligand binding to histamine receptor H2 ([125I] Aminopotentidine); details: 10 μM ligand
T6 construct: expressed in transfected cells; host or cells: CHO-K1
T6 sequence (P25021 whole entry): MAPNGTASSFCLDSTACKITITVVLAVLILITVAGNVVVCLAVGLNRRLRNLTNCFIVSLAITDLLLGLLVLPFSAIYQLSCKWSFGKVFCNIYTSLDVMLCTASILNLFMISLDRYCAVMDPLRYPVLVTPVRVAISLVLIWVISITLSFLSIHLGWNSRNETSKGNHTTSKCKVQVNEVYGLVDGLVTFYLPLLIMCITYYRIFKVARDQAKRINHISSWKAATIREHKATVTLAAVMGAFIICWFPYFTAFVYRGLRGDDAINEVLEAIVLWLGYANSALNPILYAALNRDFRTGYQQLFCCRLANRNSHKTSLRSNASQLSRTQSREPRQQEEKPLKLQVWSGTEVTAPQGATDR
From the text: Proc Natl Acad Sci USA. 87(5): 1658-1662, 1990]. […] Proc Natl Acad Sci USA. 87(5): 1658-1662, 1990]. […] Tiotidine is used as positive control.

recombinant human 5-HT1A = biological target: T7, recombinant human 5-HT1A (Homo sapiens, UniProt P08908); assay: radioligand binding to serotonin receptor 5-HT1A ([3H] 8-OH-DPAT); details: ligand concentration 1 μM
T7 construct: expressed in transfected cells; host or cells: CHO
T7 sequence (P08908 1-422): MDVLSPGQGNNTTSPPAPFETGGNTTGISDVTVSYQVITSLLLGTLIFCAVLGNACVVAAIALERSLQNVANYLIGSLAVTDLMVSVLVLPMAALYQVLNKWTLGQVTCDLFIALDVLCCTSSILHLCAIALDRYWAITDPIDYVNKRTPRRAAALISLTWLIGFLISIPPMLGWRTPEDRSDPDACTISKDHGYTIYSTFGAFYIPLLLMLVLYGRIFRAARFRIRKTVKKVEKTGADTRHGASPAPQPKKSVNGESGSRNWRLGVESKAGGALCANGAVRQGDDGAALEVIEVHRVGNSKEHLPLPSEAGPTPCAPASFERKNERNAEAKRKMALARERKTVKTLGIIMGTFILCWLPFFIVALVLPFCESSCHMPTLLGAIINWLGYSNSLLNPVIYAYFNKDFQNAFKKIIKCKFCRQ
From the text: J Pharmacol Exp Ther. 306(1): 301-309, 2003]. […] Metergoline is used as positive control.

[1] = biological target: T8, recombinant human 5-HT6 receptor (Homo sapiens, UniProt P50406); assay: radioligand binding to serotonin receptor 5-HT6 ([3H] Lysergic acid diethylamide); details: ligand concentration 1 μM; read-out: 5-HT6 % inhibition
T8 construct: expressed in transfected cells; host or cells: HeLa
T8 sequence (P50406 whole entry): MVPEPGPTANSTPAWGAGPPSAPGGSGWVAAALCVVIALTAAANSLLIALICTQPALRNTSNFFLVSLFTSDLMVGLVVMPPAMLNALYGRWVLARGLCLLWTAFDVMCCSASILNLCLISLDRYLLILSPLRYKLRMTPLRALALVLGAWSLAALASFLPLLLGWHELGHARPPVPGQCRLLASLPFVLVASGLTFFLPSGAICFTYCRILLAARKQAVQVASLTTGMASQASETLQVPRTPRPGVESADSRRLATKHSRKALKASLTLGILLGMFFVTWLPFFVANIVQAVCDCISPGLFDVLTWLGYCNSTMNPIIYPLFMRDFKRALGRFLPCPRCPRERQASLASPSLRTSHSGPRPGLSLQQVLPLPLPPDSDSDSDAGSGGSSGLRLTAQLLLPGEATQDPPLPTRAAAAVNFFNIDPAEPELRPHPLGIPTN
From the text: Mol. Pharmacol. 43:320-327, 1993]. […] Methiothepin is used as positive control.

human D4.2 receptor = biological target: T9, human D4.2 receptor (Homo sapiens, UniProt P21917, DEL265-296); assay: radioligand binding to dopamine receptor D4.2 ([3H] Spiperone); details: 10 μM ligand
T9 sequence (P21917 with tags, fused parts or gaps DEL265-296): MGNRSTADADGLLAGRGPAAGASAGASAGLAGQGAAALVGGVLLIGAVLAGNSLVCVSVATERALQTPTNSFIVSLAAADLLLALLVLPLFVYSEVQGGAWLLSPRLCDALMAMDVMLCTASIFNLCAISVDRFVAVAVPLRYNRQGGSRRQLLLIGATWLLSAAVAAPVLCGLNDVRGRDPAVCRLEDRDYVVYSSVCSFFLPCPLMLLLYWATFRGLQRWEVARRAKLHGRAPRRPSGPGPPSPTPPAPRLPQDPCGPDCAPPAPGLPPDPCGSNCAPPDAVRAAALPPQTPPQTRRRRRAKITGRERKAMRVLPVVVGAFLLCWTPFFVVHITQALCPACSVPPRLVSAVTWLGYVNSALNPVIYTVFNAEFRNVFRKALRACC
Description: Screening of the disclosed compounds for potential ability to interact with dopamine receptor D4.2 is carried out by method of radioligand binding. […] From the cells transfected in this way membrane species are prepared by homogenization of these cells in glass homogenizer with the subsequent separation of plasmatic membranes from cell nuclei, mitochondrias and cell wreckages by differential centrifugation. […] After incubation samples are filtered in vacuo on glass-microfiber filters G/F (Millipor, USA), filters are washed three times with cold solution of medium and radioactivity is measured by scintillation counter MicroBeta 340 (Perkin Elmer, USA). Nonspecific binding which makes up 10% of the overall binding is determined by incubation of membrane species with radioligand in the presence of 10 μM of Haloperidol.
Spiperone is used as positive control. Tested compounds' binding to the receptor is determined by their ability to displace radioligand and expressed in percent of displacement (% I). Values of % I are calculated according to the following equation:
wherein: TA—is overall radioactivity in the presence of radioligand only, CA—is radioactivity in the presence of radioligand and tested compound and NA—is radioactivity in the presence of radioligand and Haloperidol (10 μM).

## Cc1ccc2c(c1)[C@H]1CN(C)CCC[C@@H]1N2CCc1ccc(C)nc1 (relative stereo) [1.6.2(11)]
Adrenergic receptor α1B
  α-Adrenoceptor α1B, % inhibition: 94%
Human α1D receptor
  α-Adrenoceptor α1D, % inhibition: 90%
Human D2S receptor
  Dopamine receptor D2S, % inhibition: 31%
Human D3 receptor
  Dopamine receptor D3, % inhibition: 36%
Human H1 receptor
  Histamine receptor H1, % inhibition: 100%
Human H2 receptor
  Histamine receptor H2, % inhibition: 76%
Recombinant human 5-HT1A
  inhibition at 1 µM: 55%
[1]
  inhibition at 1 µM: 93%
Human D4.2 receptor
  Dopamine receptor D4.2, % inhibition: 6%
